Test results: ChEMBL document CHEMBL5523749, “Amphiphilic Heparinoids as Potent Antiviral Agents against SARS-CoV-2” (J Med Chem, 2024); call rule not given here
In brackets after ≈: the same amount, converted by molar mass.

Columns and labels:
[1] = tested on: SARS-CoV-2; type: functional, organism-based, Severe acute respiratory syndrome coronavirus 2, G614, Vero E6
[2] = tested on: SARS-CoV-2; assay: microbe, parasite or virus in culture; settings: Severe acute respiratory syndrome coronavirus 2, D614, Vero C1008
Description: Antiviral activity against SARS-CoV-2 D614 isolates infected in African green monkey Vero E6 cells assessed as reduction in plaque formation treated for 1 hr prior to infection with cells incubated for 30 mins by plaque reduction neutralization test

[3] = target: Spike glycoprotein (Severe acute respiratory syndrome coronavirus 2, UniProt P0DTC2); assay: Binding affinity to RBD domain of SARS-CoV-2 spike protein assessed as dissociation constant by Isothermal Titration Calorimetry
[4] = Severe acute respiratory syndrome coronavirus 2, G614, Vero C1008, read-out: IC50

Row | SMILES | IC50 [1, 4] | IC50 [2] | IC50 ([1]; vero e6) | Kd [3]
1 | CC(C)CCC[C@@H](C)[C@H]1CC[C@H]2[C@@H]3CC[C@H]4C[C@@H](O[C@@H]5O[C@H](COS(=O)(=O)[O-])[C@@H](O[C@H]6O[C@H](COS(=O)(=O)[O-])[C@@H](O[C@H]7O[C@H](COS(=O)(=O)[O-])[C@@H](O[C@H]8O[C@H](COS(=O)(=O)[O-])[C@@H](O[C@H]9O[C@H](COS(=O)(=O)[O-])[C@@H](O[C@H]%10O[C@H](COS(=O)(=O)[O-])[C@@H](OS(=O)(=O)[O-])[C@H](OS(=O)(=O)[O-])[C@H]%10OS(=O)(=O)[O-])[C@H](OS(=O)(=O)[O-])[C@H]9OS(=O)(=O)[O-])[C@H](OS(=O)(=O)[O-])[C@H]8OS(=O)(=O)[O-])[C@H](OS(=O)(=O)[O-])[C@H]7OS(=O)(=O)[O-])[C@H](OS(=O)(=O)[O-])[C@H]6OS(=O)(=O)[O-])[C@H](OS(=O)(=O)[O-])[C@H]5OS(=O)(=O)[O-])CC[C@]4(C)[C@H]3CC[C@]12C.[Na+].[Na+].[Na+].[Na+].[Na+].[Na+].[Na+].[Na+].[Na+].[Na+].[Na+].[Na+].[Na+].[Na+].[Na+].[Na+].[Na+].[Na+].[Na+] | 65.9 µg/mL | 11.9 µg/mL |  | 
2 | C[C@H](CCC[C@@H](C)[C@H]1CC[C@@H]2C1CC[C@H]1[C@H]2CC[C@H]2C[C@@H](O[C@@H]3O[C@H](COS(=O)(=O)[O-])[C@@H](O[C@H]4O[C@H](COS(=O)(=O)[O-])[C@@H](O[C@H]5O[C@H](COS(=O)(=O)[O-])[C@@H](O[C@H]6O[C@H](COS(=O)(=O)[O-])[C@@H](OS(=O)(=O)[O-])[C@H](OS(=O)(=O)[O-])[C@H]6OS(=O)(=O)[O-])[C@H](OS(=O)(=O)[O-])[C@H]5OS(=O)(=O)[O-])[C@H](OS(=O)(=O)[O-])[C@H]4OS(=O)(=O)[O-])[C@H](OS(=O)(=O)[O-])[C@H]3OS(=O)(=O)[O-])CC[C@@]21C)CN=[N+]=[N-].[Na+].[Na+].[Na+].[Na+].[Na+].[Na+].[Na+].[Na+].[Na+].[Na+].[Na+].[Na+].[Na+] (stereo partly drawn) | 109 µg/mL | 16.7 µg/mL |  | 
3 | O=C(CCCCCCCCCCn1cc(CNc2ccc([N+](=O)[O-])c3nonc23)nn1)NCCCCCCCCCCCO[C@@H]1O[C@H](COS(=O)(=O)[O-])[C@@H](O[C@H]2O[C@H](COS(=O)(=O)[O-])[C@@H](O[C@H]3O[C@H](COS(=O)(=O)[O-])[C@@H](O[C@H]4O[C@H](COS(=O)(=O)[O-])[C@@H](OS(=O)(=O)[O-])[C@H](OS(=O)(=O)[O-])[C@H]4OS(=O)(=O)[O-])[C@H](OS(=O)(=O)[O-])[C@H]3OS(=O)(=O)[O-])[C@H](OS(=O)(=O)[O-])[C@H]2OS(=O)(=O)[O-])[C@H](OS(=O)(=O)[O-])[C@H]1OS(=O)(=O)[O-].[Na+].[Na+].[Na+].[Na+].[Na+].[Na+].[Na+].[Na+].[Na+].[Na+].[Na+].[Na+].[Na+] |  | 166 µg/mL | Not Active | 
4 | [N-]=[N+]=NCCCCCCCCCCC(=O)NCCCCCCO[C@@H]1O[C@H](COS(=O)(=O)[O-])[C@@H](O[C@H]2O[C@H](COS(=O)(=O)[O-])[C@@H](O[C@H]3O[C@H](COS(=O)(=O)[O-])[C@@H](O[C@H]4O[C@H](COS(=O)(=O)[O-])[C@@H](OS(=O)(=O)[O-])[C@H](OS(=O)(=O)[O-])[C@H]4OS(=O)(=O)[O-])[C@H](OS(=O)(=O)[O-])[C@H]3OS(=O)(=O)[O-])[C@H](OS(=O)(=O)[O-])[C@H]2OS(=O)(=O)[O-])[C@H](OS(=O)(=O)[O-])[C@H]1OS(=O)(=O)[O-].[Na+].[Na+].[Na+].[Na+].[Na+].[Na+].[Na+].[Na+].[Na+].[Na+].[Na+].[Na+].[Na+] | 158 µg/mL | 101 µg/mL |  | 
5 | CC(C)CCC[C@@H](C)[C@H]1CC[C@H]2[C@@H]3CC[C@H]4C[C@@H](O[C@H]5O[C@H](COS(=O)(=O)[O-])[C@@H](O[C@H]6O[C@H](COS(=O)(=O)[O-])[C@@H](O[C@H]7O[C@H](COS(=O)(=O)[O-])[C@@H](O[C@H]8O[C@H](COS(=O)(=O)[O-])[C@@H](OS(=O)(=O)[O-])[C@H](OS(=O)(=O)[O-])[C@H]8OS(=O)(=O)[O-])[C@H](OS(=O)(=O)[O-])[C@H]7OS(=O)(=O)[O-])[C@H](OS(=O)(=O)[O-])[C@H]6OS(=O)(=O)[O-])[C@H](OS(=O)(=O)[O-])[C@H]5OS(=O)(=O)[O-])CC[C@]4(C)[C@H]3CC[C@]12C.[Na+].[Na+].[Na+].[Na+].[Na+].[Na+].[Na+].[Na+].[Na+].[Na+].[Na+].[Na+].[Na+] |  | 148 µg/mL | Not Active | 
6 | CC(C)CCC[C@@H](C)[C@H]1CC[C@H]2[C@@H]3CC[C@H]4C[C@@H](O[C@@H]5O[C@@H](C(=O)O)[C@@H](O[C@@H]6O[C@@H](C(=O)O)[C@@H](O[C@@H]7O[C@@H](C(=O)O)[C@@H](O[C@@H]8O[C@@H](C(=O)O)[C@@H](OS(=O)(=O)O)[C@H](O)[C@H]8OS(=O)(=O)O)[C@H](O)[C@H]7OS(=O)(=O)O)[C@H](O)[C@H]6OS(=O)(=O)O)[C@H](O)[C@H]5OS(=O)(=O)O)CC[C@]4(C)[C@H]3CC[C@]12C |  | 48.5 µg/mL (≈ 32.5 µM) |  | 
7 | CC(C)CCC[C@@H](C)[C@H]1CC[C@H]2[C@@H]3CC[C@H]4C[C@@H](OCc5cn(CCCO[C@@H]6O[C@H](COS(=O)(=O)[O-])[C@@H](O[C@H]7O[C@H](COS(=O)(=O)[O-])[C@@H](O[C@H]8O[C@H](COS(=O)(=O)[O-])[C@@H](O[C@H]9O[C@H](COS(=O)(=O)[O-])[C@@H](OS(=O)(=O)[O-])[C@H](OS(=O)(=O)[O-])[C@H]9OS(=O)(=O)[O-])[C@H](OS(=O)(=O)[O-])[C@H]8OS(=O)(=O)[O-])[C@H](OS(=O)(=O)[O-])[C@H]7OS(=O)(=O)[O-])[C@H](OS(=O)(=O)[O-])[C@H]6OS(=O)(=O)[O-])nn5)CC[C@]4(C)[C@H]3CC[C@]12C.[Na+].[Na+].[Na+].[Na+].[Na+].[Na+].[Na+].[Na+].[Na+].[Na+].[Na+].[Na+].[Na+] | 310 µg/mL | 115 µg/mL |  | 
8 | CC(C)CCC[C@@H](C)[C@H]1CC[C@H]2[C@@H]3CC[C@H]4C[C@@H](O[C@@H]5O[C@@H](C(=O)O)[C@@H](O[C@@H]6O[C@@H](C(=O)O)[C@@H](O[C@@H]7O[C@@H](C(=O)O)[C@@H](OS(=O)(=O)O)[C@H](O)[C@H]7OS(=O)(=O)O)[C@H](O)[C@H]6OS(=O)(=O)O)[C@H](O)[C@H]5OS(=O)(=O)O)CC[C@]4(C)[C@H]3CC[C@]12C |  | 30.4 µg/mL (≈ 24.6 µM) |  | 9.18 µM
9 | C#CCNC(=O)CC[C@@H](C)[C@H]1CC[C@H]2[C@@H]3CC[C@@H]4C[C@H](O[C@@H]5O[C@H](COS(=O)(=O)[O-])[C@@H](O[C@H]6O[C@H](COS(=O)(=O)[O-])[C@@H](O[C@H]7O[C@H](COS(=O)(=O)[O-])[C@@H](O[C@H]8O[C@H](COS(=O)(=O)[O-])[C@@H](OS(=O)(=O)[O-])[C@H](OS(=O)(=O)[O-])[C@H]8OS(=O)(=O)[O-])[C@H](OS(=O)(=O)[O-])[C@H]7OS(=O)(=O)[O-])[C@H](OS(=O)(=O)[O-])[C@H]6OS(=O)(=O)[O-])[C@H](OS(=O)(=O)[O-])[C@H]5OS(=O)(=O)[O-])CC[C@]4(C)[C@H]3CC[C@]12C.[Na+].[Na+].[Na+].[Na+].[Na+].[Na+].[Na+].[Na+].[Na+].[Na+].[Na+].[Na+].[Na+] |  | 85.3 µg/mL | Not Active | 
10 | CCCCCCCCCCCCCCCCCC(=O)NCCCO[C@@H]1O[C@H](COS(=O)(=O)[O-])[C@@H](O[C@H]2O[C@H](COS(=O)(=O)[O-])[C@@H](O[C@H]3O[C@H](COS(=O)(=O)[O-])[C@@H](O[C@H]4O[C@H](COS(=O)(=O)[O-])C(S(=O)(=O)[O-])[C@H](OS(=O)(=O)[O-])[C@H]4OS(=O)(=O)[O-])[C@H](OS(=O)(=O)[O-])[C@H]3OS(=O)(=O)[O-])[C@H](OS(=O)(=O)[O-])[C@H]2OS(=O)(=O)[O-])[C@H](OS(=O)(=O)[O-])[C@H]1OS(=O)(=O)[O-].[Na+].[Na+].[Na+].[Na+].[Na+].[Na+].[Na+].[Na+].[Na+].[Na+].[Na+].[Na+].[Na+] (stereo partly drawn) | 70.8 µg/mL | 19.5 µg/mL |  | 
11 | CC(C)CCC[C@@H](C)[C@H]1CC[C@H]2[C@@H]3CC[C@H]4C[C@@H](O[C@@H]5O[C@@H](COS(=O)(=O)O)[C@@H](O[C@@H]6O[C@@H](COS(=O)(=O)O)[C@@H](O[C@@H]7O[C@@H](COS(=O)(=O)O)[C@@H](O[C@@H]8O[C@@H](COS(=O)(=O)O)[C@@H](OS(=O)(=O)O)[C@H](O)[C@H]8OS(=O)(=O)O)[C@H](O)[C@H]7OS(=O)(=O)O)[C@H](O)[C@H]6OS(=O)(=O)O)[C@H](O)[C@H]5OS(=O)(=O)O)CC[C@]4(C)[C@H]3CC[C@]12C |  | 27.5 µg/mL (≈ 15.6 µM) |  | 
12 | CC(C)CCC[C@@H](C)[C@H]1CC[C@H]2[C@@H]3CC[C@H]4C[C@@H](O[C@@H]5O[C@@H](COS(=O)(=O)O)[C@@H](O[C@@H]6O[C@@H](COS(=O)(=O)O)[C@@H](O[C@@H]7O[C@@H](COS(=O)(=O)O)[C@@H](OS(=O)(=O)O)[C@H](O)[C@H]7OS(=O)(=O)O)[C@H](O)[C@H]6OS(=O)(=O)O)[C@H](O)[C@H]5OS(=O)(=O)O)CC[C@]4(C)[C@H]3CC[C@]12C |  | 26.9 µg/mL (≈ 18.7 µM) |  | 2.11 µM
13 | CC(C)CCC[C@@H](C)[C@H]1CC[C@H]2[C@@H]3CC[C@H]4C[C@@H](O[C@@H]5O[C@@H](COS(=O)(=O)O)[C@@H](O[C@@H]6O[C@@H](COS(=O)(=O)O)[C@@H](OS(=O)(=O)O)[C@H](O)[C@H]6OS(=O)(=O)O)[C@H](O)[C@H]5OS(=O)(=O)O)CC[C@]4(C)[C@H]3CC[C@]12C |  | 32.1 µg/mL (≈ 28.8 µM) |  | 
